Experiment [1] can be described thus: In vitro binding assay to insoluble polysaccharide. As to conditions: 100 µg polysaccharide + 5 µg peptide, room temperature 1 h, SDS-PAGE. The method, then:
Chitin (β-1,4-N-acetyl-D-glucosamine), chitosan (β-1,4-D-glucosamine), cellulose (β-1,4-glucan), curdlan (β-1,3-glucan) and peptidoglycan (β-1,4-glycosidic linkage between N-acetyl muramic and N-acetylglucosamine) were used for the in vitro binding assay of Anal 3-Pro. One hundred µg of each insoluble polysaccharide was added in 5 µg of purified Anal 3-Pro and incubated at room temperature with mild agitation for 1 h. The mixture was centrifuged (10,000×g for 2 min) and the pellet was washed three times with 1 ml of washing buffer (10 mM Tris, pH 7.5, 500 mM NaCl, 0.02% Tween 20). The peptide bound to insoluble polysaccaharide was detached by adding SDS-polyacrylamide gel electrophoresis sample buffer.

A further experiment deals with T. begellii. Description: Confocal laser-scanning microscopy, localization of FITC-conjugated peptides. It is filed as cell-based. As to conditions: 15 min at 28°C.
The nature of experiment [2]: FITC-dextran leakage from liposomes. As to conditions: 10 µM peptide, peptide/lipid 1/10, 25°C, FITC fluorescence. The method, then: FITC-labeled dextrans (FD-4, 10, 20, 40, 70 and 500) were utilized as model cytoplasmic components. FD (fluorescein isothiocyanate dextrans), with average molecular masses of 4, 10, 20, 40, 70, and 500 kDa were all purchased from the Sigma Chemical Co. (St. Louis, MO). FD-entrapping liposomes (unilamellar vesicles) with different lipid compositions were prepared using the reverse-phase evaporation method, after which the concentrations of the FD-entrapping vesicles were determined in triplicate using a phosphorus assay. To prepare FD-entrapping liposomes, a buffer solution (buffer II: PBS) containing 2 mg/ml of the FD was sonicated for 30 min with a lipid solution in chloroform (20 mg/ml) on ice. The chloroform was then gradually removed using a rotary vacuum evaporator at 25°C, resulting first in the formation of a viscous gel and then a liposome suspension. Buffer (2 ml) was added, and the suspension was evaporated further to remove the remaining solvent. The liposome suspensions were then centrifuged and washed for several cycles at 22,000×gav for 30 min in order to remove unentrapped-FD. The washed liposomes were extruded 30 times through polycarbonate filters (two stacked 0.4-µm pore size filters) using an Avanti Mini-Extruder (Avanti Polar Lipids inc., Alabaster, AL) to obtain liposomes of homogeneous size (∼400 nm). Aliquots of the peptide solutions at appropriate concentrations were incubated with a suspension of FD-loaded liposomes (100 µM) for 1–20 min at 25°C, and were then centrifuged for 30 min at 22,000×g. The supernatants were recovered and the leakage was recorded by monitoring the FITC fluorescence intensity (excitation wavelength: 494 nm, emission wavelength: 520 nm). 100% leakage was achieved by addition of Triton X-100 to a final concentration of 1 mM. The percent leakage value was then plotted.

The subject of experiment [3] is plasmid DNA (pBluescript SK(+)). Kind of experiment: DNA gel retardation. In kind it is binding. As to conditions: plasmid DNA 100 ng, 10 min at 37°C, agarose gel.

Turning to buforin II, the binding to chitin result in experiment [1] was “recognized only chitin”. Besides, the “intracellular localization of FITC-conjugated peptide” value in the experiment with T. begellii is “distributed throughout the fungal cells”. Besides, in experiment [2], the “release of FD4 from PC/CH liposomes” value is listed as 3.6%, the “release of FD4 from PE/PG liposomes” value was determined as 5%, the “release of larger FD markers from PC/CH vesicles” value is “unable to release any of the larger markers” and the “release of larger FD markers from PE/PG liposomes” value is on record as “unable to release any of the larger markers”. The “amount of peptide at which retardation of the pDNA band was detected” value in experiment [3] came to 1 µg.

The values above are taken from publication PMC3720801, “A Proline-Hinge Alters the Characteristics of the Amphipathic α-helical AMPs” (PLoS ONE, 2013).
